Results on 15 molecules are retold here after paper PMC11950852, “Diversity Scale of Library Matters: Impact of mRNA Library Diversity Scales on the Discovery of Macrocyclic Peptides Targeting a Protein by the RaPID System” (ACS Central Science, 2025).

Test [1] addresses Fc-fused MET (His-/hFc-tagged human MET ectodomain) (Homo sapiens, UniProt P08581). As to the kind of experiment: SPR binding kinetics of selected macrocyclic peptides to Fc-fused MET. The settings on record: for kon: pH 7.4, read-out: ka. (SPR reads the build-up and loss of mass on a sensor chip optically.)
Experimental: The binding kinetic constants (ka and kd) and dissociation constant (KD) of each macrocyclic peptide were determined by surface plasmon resonance, SPR (Table 1, Figure S8).
Binding kinetics analysis of peptides by SPR
The binding affinities of selected peptides targeting Fc-fused MET were analyzed by SPR using a Biacore
8K instrument (Cytiva) at 25 °C. The composition of the running buffer was HBS EP+ buffer (10 mM
HEPES pH 7.4, 150 mM NaCl, 3 mM EDTA, and 0.05% (v/v) Surfactant P20) containing 0.1% DMSO.
The target protein, Fc-fused MET, was immobilized on a Biacore sensor chip ProteinG (Cytiva) to 1,500–
2,000 response units. The kinetic constants were determined by a single-cycle kinetics analysis by injecting
five different concentrations (two-fold dilution series) of each peptide at the flow rate of 30 μL min–1.
Binding sensorgrams were fitted using the standard 1:1 interaction model and analyzed using Biacore™
Insight Software (Figure S8) .
Test [2] concerns the target T1, ectodomain of MET fused to Fc (UniProt P08581 25-932).
T1 chain: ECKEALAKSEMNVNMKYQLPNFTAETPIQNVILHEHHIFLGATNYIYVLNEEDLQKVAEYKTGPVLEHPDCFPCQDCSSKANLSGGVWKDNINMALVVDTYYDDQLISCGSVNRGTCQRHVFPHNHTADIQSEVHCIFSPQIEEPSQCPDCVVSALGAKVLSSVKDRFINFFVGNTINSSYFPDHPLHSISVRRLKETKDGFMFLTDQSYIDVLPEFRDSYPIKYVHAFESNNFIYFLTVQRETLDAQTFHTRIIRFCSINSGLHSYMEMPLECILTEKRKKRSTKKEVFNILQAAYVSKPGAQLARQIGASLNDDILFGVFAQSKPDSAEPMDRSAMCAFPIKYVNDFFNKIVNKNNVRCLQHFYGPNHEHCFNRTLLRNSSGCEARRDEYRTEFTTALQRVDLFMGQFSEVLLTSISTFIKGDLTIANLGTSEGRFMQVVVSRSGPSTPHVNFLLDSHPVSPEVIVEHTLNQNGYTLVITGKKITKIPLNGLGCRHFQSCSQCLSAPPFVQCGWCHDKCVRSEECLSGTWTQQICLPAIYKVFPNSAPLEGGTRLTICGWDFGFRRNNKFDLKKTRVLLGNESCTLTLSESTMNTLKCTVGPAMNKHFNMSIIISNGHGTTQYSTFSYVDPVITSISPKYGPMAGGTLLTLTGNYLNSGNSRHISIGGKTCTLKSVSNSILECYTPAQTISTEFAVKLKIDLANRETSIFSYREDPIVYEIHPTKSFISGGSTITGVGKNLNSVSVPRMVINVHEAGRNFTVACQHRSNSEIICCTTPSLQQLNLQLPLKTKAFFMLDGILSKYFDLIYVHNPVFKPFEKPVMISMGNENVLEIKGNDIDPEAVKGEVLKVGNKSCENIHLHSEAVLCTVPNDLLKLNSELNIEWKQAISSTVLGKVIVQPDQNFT
As to the kind of experiment: SPR.

In test [3] the target is T2, ectodomain of MET fused to Fc (UniProt P08581 25-932).
T2 construct: MET (hepatocyte growth factor receptor), a receptor tyrosine kinase; also called MET-Fc; Fc-tagged MET
As to the kind of experiment: SPR; fitted by a 1:1 binding model; who was immobilised and the conditions are in the Supporting Information (not shown). The settings on record: both partners purified.

Where a SMILES comes first, the peptide text is derived from it. Bridges are numbered along the chain shown (N, C = ends). Where no end group is shown, it is not given here. [ ]: non-standard residue; d: D form.

In the case of `CC(C)C[C@@H]1NC(=O)[C@H](CO)NC(=O)[C@H](Cc2ccccc2)NC(=O)[C@H](Cc2ccc(O)cc2)NC(=O)[C@H](Cc2c[nH]c3ccccc23)NC(=O)[C@H](CCCCN)NC(=O)[C@H](CCCCN)NC(=O)[C@H](CO)NC(=O)[C@H](CC(=O)O)NC(=O)[C@H](Cc2ccc(O)cc2)NC(=O)[C@H](CCC(=O)O)NC(=O)[C@H](Cc2c[nH]cn2)NC(=O)[C@H](Cc2c[nH]c3ccccc23)NC(=O)[C@H](C(C)C)NC(=O)[C@H](CC(C)C)NC(=O)[C@H](Cc2ccc(O)cc2)NC(=O)CSC[C@@H](C(=O)NCC(N)=O)NC1=O` [12-5] ({CH2CO}-YLVWHEYDSKKWYFSLCG-NH2; thioether N-17), the kd in test [1] (SPR conditions as E1) amounted to 0.002 s⁻¹. For the same molecule, the kon in test [1] stood at 130000 M⁻¹ s⁻¹.
On to `CC(C)C[C@@H]1NC(=O)[C@H](CCCCN)NC(=O)CNC(=O)[C@H](Cc2ccccc2)NC(=O)CNC(=O)[C@H](Cc2ccc(O)cc2)NC(=O)[C@H](C(C)C)NC(=O)[C@H](Cc2c[nH]c3ccccc23)NC(=O)[C@H](Cc2ccc(O)cc2)NC(=O)CSC[C@@H](C(=O)NCC(N)=O)NC(=O)[C@H](Cc2ccccc2)NC(=O)[C@H](C)NC(=O)[C@H](CCCNC(=N)N)NC(=O)[C@H](Cc2c[nH]c3ccccc23)NC(=O)[C@H](CC(=O)O)NC(=O)[C@H](CC(N)=O)NC(=O)[C@H](CC(N)=O)NC1=O` [14-1] ({CH2CO}-YWVYGFGKLNNDWRAFCG-NH2; thioether N-17), for which the kd in test [1] (SPR conditions as E1) was determined as 0.000739 s⁻¹. Also, the kon in test [1] was 257000 M⁻¹ s⁻¹.
Regarding `CC[C@H](C)[C@@H]1NC(=O)[C@H](C(C)C)NC(=O)[C@H](CO)NC(=O)[C@H](CC(=O)O)NC(=O)[C@H](C(C)C)NC(=O)[C@H](CC(=O)O)NC(=O)[C@H](CCCCN)NC(=O)CNC(=O)[C@H](CO)NC(=O)[C@H](Cc2c[nH]c3ccccc23)NC(=O)[C@H](CO)NC(=O)[C@H](Cc2ccc(O)cc2)NC(=O)[C@H](Cc2ccc(O)cc2)NC(=O)CSC[C@@H](C(=O)NCC(N)=O)NC(=O)[C@H](CC(N)=O)NC(=O)[C@H](CC(N)=O)NC(=O)[C@H](Cc2c[nH]c3ccccc23)NC1=O` [14-2] ({CH2CO}-YYSWSGKDVDSVIWNNCG-NH2; thioether N-17), in test [1] (SPR conditions as E1), the kd was 0.00182 s⁻¹. Also, the kon in test [1] was 464000 M⁻¹ s⁻¹.
Taken in the same sequence, the figures for `CC(C)C[C@@H]1NC(=O)[C@H](CO)NC(=O)[C@H](Cc2c[nH]c3ccccc23)NC(=O)[C@H](CC(N)=O)NC(=O)[C@H](CCCCN)NC(=O)[C@H](CO)NC(=O)[C@H](CC(=O)O)NC(=O)[C@H](Cc2ccccc2)NC(=O)[C@H](CCC(=O)O)NC(=O)[C@H](CO)NC(=O)[C@H](Cc2c[nH]c3ccccc23)NC(=O)[C@H](CO)NC(=O)[C@H](CC(C)C)NC(=O)[C@H](Cc2ccc(O)cc2)NC(=O)CSC[C@@H](C(=O)NCC(N)=O)NC(=O)[C@H](Cc2ccc(O)cc2)NC(=O)[C@H](C)NC1=O` [14-3] ({CH2CO}-YLSWSEFDSKNWSLAYCG-NH2; thioether N-17) were 0.00297 s⁻¹ and 84900 M⁻¹ s⁻¹.
Take `CC(C)[C@@H]1NC(=O)[C@H](C)NC(=O)[C@H](CC(=O)O)NC(=O)[C@H](Cc2ccccc2)NC(=O)[C@H](CC(=O)O)NC(=O)[C@H](CCCNC(=N)N)NC(=O)CNC(=O)[C@H]([C@@H](C)O)NC(=O)[C@H](Cc2c[nH]c3ccccc23)NC(=O)[C@H](CO)NC(=O)[C@H](Cc2ccc(O)cc2)NC(=O)[C@H](Cc2ccc(O)cc2)NC(=O)CSC[C@@H](C(=O)NCC(N)=O)NC(=O)[C@H](CCCCN)NC(=O)[C@H](CC(N)=O)NC(=O)[C@H](Cc2c[nH]c3ccccc23)NC(=O)[C@H](CCCCN)NC1=O` [14-4] ({CH2CO}-YYSWTGRDFDAVKWNKCG-NH2; thioether N-17): the kd in test [1] (SPR conditions as E1) amounted to 0.00198 s⁻¹. For the same molecule, in test [1], the kon stood at 798000 M⁻¹ s⁻¹.
Taken in the same sequence, the figures for `CC[C@H](C)[C@@H]1NC(=O)[C@H](C(C)C)NC(=O)[C@H](Cc2c[nH]c3ccccc23)NC(=O)[C@H](CC(=O)O)NC(=O)[C@H](CO)NC(=O)[C@H](CO)NC(=O)[C@H](CC(=O)O)NC(=O)[C@H](Cc2ccc(O)cc2)NC(=O)[C@H](Cc2ccc(O)cc2)NC(=O)[C@H](CCCCN)NC(=O)[C@H](Cc2c[nH]c3ccccc23)NC(=O)[C@H](CO)NC(=O)[C@H](CC(C)C)NC(=O)[C@H](Cc2ccc(O)cc2)NC(=O)CSC[C@@H](C(=O)NCC(N)=O)NC(=O)[C@H](CO)NC(=O)[C@H](CC(C)C)NC1=O` [14-5] ({CH2CO}-YLSWKYYDSSDWVILSCG-NH2; thioether N-17) were 0.00836 s⁻¹ and 129000 M⁻¹ s⁻¹.
`CC[C@H](C)[C@@H]1NC(=O)[C@H](Cc2ccc(O)cc2)NC(=O)CSC[C@@H](C(=O)NCC(N)=O)NC(=O)[C@H](CCCNC(=N)N)NC(=O)[C@H](C(C)C)NC(=O)[C@H](Cc2ccc(O)cc2)NC(=O)[C@H](C(C)C)NC(=O)[C@H](Cc2c[nH]c3ccccc23)NC(=O)[C@H](CO)NC(=O)[C@H](CCCCN)NC(=O)[C@H](CO)NC(=O)[C@H](CC(=O)O)NC(=O)[C@H](Cc2ccc(O)cc2)NC(=O)[C@H](C(C)C)NC(=O)[C@H](Cc2ccc(O)cc2)NC(=O)[C@H](Cc2c[nH]c3ccccc23)NC(=O)[C@H](CCC(=O)O)NC1=O` [14-6] ({CH2CO}-YIEWYVYDSKSWVYVRCG-NH2; thioether N-17) displayed a kd in test [1] (SPR conditions as E1) of 0.00564 s⁻¹. In addition, in test [1], the kon amounted to 179000 M⁻¹ s⁻¹.
As a reminder, the Kd is the concentration at which binding is half-saturated. In the case of `CC(C)[C@@H]1NC(=O)[C@H](CCC(=O)O)NC(=O)[C@H](Cc2c[nH]cn2)NC(=O)[C@H]([C@@H](C)O)NC(=O)[C@H](CCCNC(=N)N)NC(=O)[C@H](CCCNC(=N)N)NC(=O)[C@H](CC(N)=O)NC(=O)[C@H](Cc2ccccc2)NC(=O)[C@H](CCC(N)=O)NC(=O)[C@H](CCCNC(=N)N)NC(=O)[C@@H](Cc2ccc(O)cc2)NC(=O)CSC[C@@H](C(=O)NCC(N)=O)NC(=O)[C@H](CC(=O)O)NC(=O)[C@H](CCCNC(=N)N)NC(=O)[C@H](CC(N)=O)NC(=O)[C@H](Cc2c[nH]c3ccccc23)NC1=O` [aMD4, reference compound] ({CH2CO}-[dY]RQFNRRTHEVWNRDCG-NH2; thioether N-16), in test [1] (KD, SPR conditions as E1, 1:1 binding model), the Kd was 3.67 nM. Moreover, the kd in test [1] (SPR conditions as E1) stood at 0.00676 s⁻¹. Also, the kon in test [1] came to 1.84e+06 M⁻¹ s⁻¹.

B1: 12–2 (peptide)
chain: {CH2CO}-YYSWSGNVSESVKWNSCG-NH2
modifications: thioether N-17
SMILES: CC(C)[C@@H]1NC(=O)[C@H](CC(N)=O)NC(=O)CNC(=O)[C@H](CO)NC(=O)[C@H](Cc2c[nH]c3ccccc23)NC(=O)[C@H](CO)NC(=O)[C@H](Cc2ccc(O)cc2)NC(=O)[C@H](Cc2ccc(O)cc2)NC(=O)CSC[C@@H](C(=O)NCC(N)=O)NC(=O)[C@H](CO)NC(=O)[C@H](CC(N)=O)NC(=O)[C@H](Cc2c[nH]c3ccccc23)NC(=O)[C@H](CCCCN)NC(=O)[C@H](C(C)C)NC(=O)[C@H](CO)NC(=O)[C@H](CCC(=O)O)NC(=O)[C@H](CO)NC1=O
One may read the koff as the first-order rate constant of dissociation. A high value points to a short-lived complex. In test [2], B1 had an off-rate (koff) of 0.00413 s⁻¹.

B2: 8–3 (peptide)
chain: {CH2CO}-YWYYTFDGRWEEYDAACG
modifications: thioether N-17 (inferred)
With B2, in test [3], the Kd amounted to 199 nM and the off-rate (koff) was determined as 0.0464 s⁻¹.

B3: 6–1 (peptide)
chain: {CH2CO}-YSWYLNWQAQWKKFEFCG
modifications: thioether N-17 (inferred)
With B3, the koff in test [3] was found to be 0.0518 s⁻¹.

B4: 10–6 (peptide)
chain: {CH2CO}-YWWYYWYRDEYLWRTRCG
modifications: thioether N-17 (inferred)
In test [2], B4 displayed a koff of 0.00489 s⁻¹.

B5: 8–2 (peptide)
chain: {CH2CO}-YYHWNGRDGDKVEWVVCG-NH2
modifications: thioether N-17
SMILES: CC(C)[C@@H]1NC(=O)[C@H](CCCCN)NC(=O)[C@H](CC(=O)O)NC(=O)CNC(=O)[C@H](CC(=O)O)NC(=O)[C@H](CCCNC(=N)N)NC(=O)CNC(=O)[C@H](CC(N)=O)NC(=O)[C@H](Cc2c[nH]c3ccccc23)NC(=O)[C@H](Cc2c[nH]cn2)NC(=O)[C@H](Cc2ccc(O)cc2)NC(=O)[C@H](Cc2ccc(O)cc2)NC(=O)CSC[C@@H](C(=O)NCC(N)=O)NC(=O)[C@H](C(C)C)NC(=O)[C@H](C(C)C)NC(=O)[C@H](Cc2c[nH]c3ccccc23)NC(=O)[C@H](CCC(=O)O)NC1=O
Turning to B5, the koff in test [3] is 0.0103 s⁻¹.

B6: 10–4 (peptide)
chain: {CH2CO}-YIEWNRFNSKLWNCNCCG
modifications: thioether N-17; cysteine pairing not given here
The molecule B6 displayed a koff in test [2] of 0.00809 s⁻¹.

B7: 8–1 (peptide)
chain: {CH2CO}-YWYYTFDGRWKEYGAACG
modifications: thioether N-17 (inferred)
Consider B7, for which the off-rate constant (koff) in test [3] stood at 0.0427 s⁻¹.
